From ChEMBL document CHEMBL5346862, “Discovery of the thieno[2,3-d]pyrimidine-2,4-dione derivative 21a: A potent and orally bioavailable gonadotropin-releasing hormone receptor antagonist” (Eur J Med Chem, 2022)

Assays:
[1] = Oral bioavailability in Sprague-Dawley rat at 12 mg/kg measured for 24 hrs by LC/MS analysis; format: ADME, organism-based; conditions: in vivo
[2] = Cmax in Sprague-Dawley rat at 12 mg/kg, po measured for 24 hrs by LC/MS analysis; format: ADME, organism-based; parameters: dose 12 mg/kg, time 24 hrs, route po; conditions: in vivo
[3] = Cmax in Sprague-Dawley rat at 1 mg/kg, iv measured for 24 hrs by LC/MS analysis; format: ADME, organism-based; parameters: time 24 hrs, dose 1 mg/kg, route iv; conditions: in vivo
[4] = AUC(last) in Sprague-Dawley rat at 12 mg/kg, po measured for 24 hrs by LC/MS analysis; format: ADME, organism-based; parameters: time 24 hrs, dose 12 mg/kg, route po; conditions: in vivo
[5] = Tmax in Sprague-Dawley rat at 12 mg/kg, po measured for 24 hrs by LC/MS analysis; format: ADME, organism-based; conditions: in vivo
[6] = Half-life in Sprague-Dawley rat at 12 mg/kg, po measured for 24 hrs by LC/MS analysis; format: ADME, organism-based; conditions: in vivo
[7] = Apparent permeability across apical to basolateral side in human Caco-2 cells incubated for 180 mins by LC/MS/MS analysis; format: ADME, cell-based; conditions: for Papp A→B at 3 h: Caco-2
[8] = Half-life in Sprague-Dawley rat at 1 mg/kg, iv measured for 24 hrs by LC/MS analysis; format: ADME, organism-based; conditions: in vivo
[9] = Intrinsic clearance in human liver microsomes incubated for 15 mins in presence of NADPH by LC-MS analysis; format: ADME, Microsome; conditions: read-out: CLH
[10] = Intrinsic clearance in rat liver microsomes incubated for 15 mins in presence of NADPH by LC-MS analysis; format: ADME, Microsome; conditions: read-out: CLH
[11] = Clearance in Sprague-Dawley rat at 1 mg/kg, iv measured for 24 hrs by LC/MS analysis; format: ADME, organism-based; conditions: in vivo
[12] = Apparent permeability across basolateral to apical side in human Caco-2 cells incubated for 180 mins by LC/MS/MS analysis; format: ADME, cell-based; conditions: for Papp B→A at 3 h: Caco-2
[13] = AUC(last) in Sprague-Dawley rat at 1 mg/kg, iv measured for 24 hrs by LC/MS analysis; format: ADME, organism-based; parameters: dose 1 mg/kg, time 24 hrs, route iv; conditions: in vivo
[14] = Lipophilicity, log D of the compound at pH 7.4; format: physicochemical; conditions: buffer
[15] = Drug uptake in Sprague-Dawley rat hypothalamus and pituitary at 12 mg/kg, po measured after 12 hrs by LC-MS/MS analysis; format: ADME, organism-based, Hypothalamus/Pituitary gland; conditions: read-out: Drug uptake
[16] = Drug uptake in Sprague-Dawley rat hypothalamus and pituitary at 12 mg/kg, po measured after 4 hrs by LC-MS/MS analysis; format: ADME, organism-based, Hypothalamus/Pituitary gland; conditions: read-out: Drug uptake
[17] = Drug uptake in Sprague-Dawley rat heart at 12 mg/kg, po measured after 1 hr by LC-MS/MS analysis; format: ADME, organism-based; conditions: read-out: Drug uptake
[18] = Drug uptake in Sprague-Dawley rat hypothalamus and pituitary at 12 mg/kg, po measured after 1 hr by LC-MS/MS analysis; format: ADME, organism-based, Hypothalamus/Pituitary gland; conditions: read-out: Drug uptake

Papp A→B at 3 h [7] [×10⁻⁶ cm/s] | CLint scaled at […] [9] [mL/min/kg] | CLint scaled at […] [10] [mL/min/kg] | Papp B→A at 3 h [12] [×10⁻⁶ cm/s] | Compound | further results
0.05 | < 6.75 | 34.9 | 0.5 | CNc1ccc(-n2c(=O)c3c(CN(C)C)c(-c4ccc(NC(=O)NOC)cc4)sc3n(Cc3c(F)cccc3F)c2=O)nn1 | 
0.013 | 17.6 | 31.3 | 10.2 | CCc1ccc(-n2c(=O)c3c(CN(C)C)c(-c4ccc(NC(=O)NOC)cc4)sc3n(Cc3c(F)cccc3F)c2=O)nn1 | 
 | 5.22 | 29.5 |  | CONC(=O)Nc1ccc(-c2sc3c(c2CN(C)C)c(=O)n(-c2ccc(OC)nn2)c(=O)n3Cc2c(F)cccc2F)cc1 [RELUGOLIX] | bioavailability [1]: 5.7%; Cmax [2]: 35.3 nM; Cmax [3]: 544 nM; AUC(0-t) at 24 h [4]: 0.234 µM·h; logD [14]: 1.24; concentration at 12 h [15]: 3.2 ng/g; Tmax [5]: 0.33 h; concentration at 4 h [16]: 9.2 ng/g; half-life [6]: 3.88 h; Papp ([7]; caco-2, 3 h): 0.007 10^-6 cm/s; half-life [8]: 3.64 h; clearance [11]: 78.3 mL/min/kg; concentration at 1 h [17]: 429 ng/g; Papp ([12]; caco-2, 3 h): 13.84 10^-6 cm/s; concentration at 1 h [18]: 4.46 ng/g; AUC(0-t) at 24 h [13]: 0.34 µM·h

Further lines, the compound ahead of its results:

Compound | Papp A→B at 3 h [7] [×10⁻⁶ cm/s] | CLint scaled at […] [9] [mL/min/kg] | CLint scaled at […] [10] [mL/min/kg] | Papp B→A at 3 h [12] [×10⁻⁶ cm/s] | further results
COCCN(C)Cc1c(-c2ccc(NC(=O)NOC)cc2)sc2c1c(=O)n(-c1ccc(OC)nn1)c(=O)n2Cc1c(F)cccc1F | 0.031 | < 6.75 | 15.8 | 42.2 | bioavailability [1]: 10.9%; Cmax [2]: 329 nM; Cmax [3]: 1230 nM; AUC(0-t) at 24 h [4]: 0.904 µM·h; Tmax [5]: 0.31 h; half-life [6]: 4.33 h; half-life [8]: 2.6 h; clearance [11]: 38.7 mL/min/kg; AUC(0-t) at 24 h [13]: 0.689 µM·h
CONC(=O)Nc1ccc(-c2sc3c(c2CN(C)C)c(=O)n(-c2ccc(OC(F)F)nn2)c(=O)n3Cc2c(F)cccc2F)cc1 | 0.019 | < 6.75 | 16.6 | 15.1 | 
COc1ccc(-n2c(=O)c3c(CN(C)C)c(-c4ccc(NC(=O)NOCC(F)F)cc4)sc3n(Cc3c(F)cccc3F)c2=O)nn1 | 0.01 | 7.38 | 45.4 | 15.7 | 
CONC(=O)Nc1ccc(-c2sc3c(c2CN(C)C)c(=O)n(-c2cccc(OC)c2F)c(=O)n3Cc2c(F)cccc2F)cc1 | 0.051 | 52 | 211 | 21.1 | 
CONC(=O)Nc1ccc(-c2sc3c(c2CN(C)CCOC(F)(F)F)c(=O)n(-c2ccc(OC)nn2)c(=O)n3Cc2c(F)cccc2F)cc1 | 0.984 | 14.2 | 37.1 |  | bioavailability [1]: 44.7%; Cmax [2]: 920 nM; Cmax [3]: 3920 nM; AUC(0-t) at 24 h [4]: 7.37 µM·h; Tmax [5]: 1.13 h; half-life [6]: 4.86 h; half-life [8]: 2.79 h; clearance [11]: 17.5 mL/min/kg; AUC(0-t) at 24 h [13]: 1.37 µM·h
CONC(=O)Nc1ccc(-c2sc3c(c2CN(C)C)c(=O)n(-c2ccc(OC)nn2)c(=O)n3Cc2c(F)cccc2C(F)(F)F)cc1 | 0.011 | < 6.75 | < 13.5 | 4.58 | 
COc1ccc(-n2c(=O)c3c(CN(C)C)c(-c4ccc(NC(=O)NOCC(F)(F)F)cc4)sc3n(Cc3c(F)cccc3F)c2=O)nn1 | 0.009 | < 6.75 | 38.9 | 17.2 | 
C[C@H]1O[C@@H](O[C@H]2[C@@H](O)C[C@H](O[C@H]3[C@@H](O)C[C@H](O[C@H]4CC[C@@]5(C)[C@H](CC[C@@H]6[C@@H]5C[C@@H](O)[C@]5(C)[C@@H](C7=CC(=O)OC7)CC[C@]65O)C4)O[C@@H]3C)O[C@@H]2C)C[C@H](O)[C@@H]1O [DIGOXIN] | 0.013 |  |  | 12.8 | 
